Measurements: patent US20260014232A1, “Pharmaceutical Composition of GLP-1 and GIP Receptor Dual Agonist and Use Thereof” (Jiangsu Hengrui Pharmaceuticals Co., Ltd., priority 2021, published 2026)
Starred links: 1 amine or outer side, 2 acyl side, 3 side chain; linkers in the order of their positions; H or OH if unused. Non-standard residues stand in square brackets, D forms with d. Residues, ends and D or L forms follow the SMILES beside them. Groups on a side chain read outwards from the residue. *: point of attachment. C20 diacid = O=C(O)CCCCCCCCCCCCCCCCCCC(=O)*; γGlu = O=C(O)[C@H](CCC(=O)[*:2])N[*:1]; AEEA = NCCOCCOCC(=O)O; Aib = CC(C)(N)C(=O)O

Legend:
[1] = Food intake of diet-induced-obesity (DIO) mice; format: in vivo, C57BL/6 mice; details: 100 nmol/kg
Method: (§1) High-fat food-induced-obesity male C57BL/6 mice (weighing 35-55 g, aged 10-12 weeks, purchased from Shanghai Jiesijie Laboratory Animal Co., Ltd.) were tested. […] According to the experimental design, the body weight of each mouse was measured and recorded on day 0, day 3, day 6, and so on to day 27, the average body weight of each group of mice was calculated, and body weight change curves were plotted by taking the body weight on the first day as the standard. At the end, the fat and other visceral organs of each part of the mice were taken out and weighed, and the viscera/brain ratio for fat in each part of each mouse was calculated. The effect of the drug on the fat was determined by comparing the change in the viscera/brain ratio for fat of different parts of each group of mice.
The food intake of mice in each group was measured daily during the experiment.

[2] = Glucose metabolism level of db/db mice (fasting and random blood glucose, glycated hemoglobin); format: in vivo, C57BL/KsJ-db/db mice; details: for Glycated hemoglobin: end of experiment day 28, mean ± SD
Method: Each administration group had 10 db/db mice. According to the experimental design, tail vein blood was collected by needle pricking on days 0, 7, 14, 21, and 28 and determined for fasting blood glucose levels with a glucometer and glucose dipsticks, and the mice were fasted 6 h prior to the blood collection at each time point. Tail vein blood was collected by needle pricking on days 3, 10, 17, 24, and 27 and randomly determined for blood glucose levels with a glucometer. Finally, at the end of the experiment on day 28, all the animals in the administration groups were subjected to 2-5% isoflurane inhalation anesthesia, and 100 μL of whole blood was collected through the orbit of each mouse using an EDTA-K2 anticoagulation tube and used for the determination of glycated hemoglobin.

[3] = Viscera/brain ratio for fat mass in diet-induced-obesity mice; format: in vivo, C57BL/6 mice; details: DIO mice; for viscera/brain ratio for fat mass, Epididymal fat / viscera/brain ratio for fat mass, Inguinal fat / viscera/brain ratio for fat mass, Mesenteric fat / viscera/brain ratio for fat mass, Perirenal fat / viscera/brain ratio for fat mass, Scapular fat / viscera/brain ratio for fat mass, Subcutaneous fat: X ± s
Method: as §1

[4] = 10 nmol/kg s.c., Day 0, mean ± SD
[5] = 30 nmol/kg s.c., Day 0, mean ± SD
[6] = 100 nmol/kg s.c., Day 0, mean ± SD

## CC[C@H](C)[C@H](NC(=O)[C@H](CCCCN)NC(=O)[C@H](CCC(=O)O)NC(=O)[C@H](CCCCNC(=O)COCCOCCNC(=O)COCCOCCNC(=O)CC[C@H](NC(=O)CCCCCCCCCCCCCCCCCCC(=O)O)C(=O)O)NC(=O)[C@H](Cc1ccc(O)cc1)NC(=O)[C@@H](NC(=O)[C@H](CO)NC(=O)[C@H](Cc1ccc(O)cc1)NC(=O)[C@H](CC(=O)O)NC(=O)[C@H](CO)NC(=O)[C@@H](NC(=O)[C@H](Cc1ccccc1)NC(=O)[C@@H](NC(=O)CNC(=O)[C@H](CCC(=O)O)NC(=O)C(C)(C)NC(=O)[C@@H](N)Cc1ccc(O)cc1)[C@@H](C)O)[C@@H](C)O)[C@@H](C)CC)C(=O)N[C@@H](C)C(=O)N[C@@H](C)C(=O)N[C@@H](CCC(N)=O)C(=O)N[C@@H](CCC(=O)O)C(=O)N[C@@H](Cc1ccccc1)C(=O)N[C@H](C(=O)N[C@@H](CC(N)=O)C(=O)N[C@@H](Cc1c[nH]c2ccccc12)C(=O)N[C@@H](CC(C)C)C(=O)N[C@@H](CC(C)C)C(=O)N[C@@H](C)C(=O)NCC(=O)NCC(=O)N1CCC[C@H]1C(=O)N[C@@H](CO)C(=O)N[C@@H](CO)C(=O)NCC(=O)N[C@@H](C)C(=O)N1CCC[C@H]1C(=O)N1CCC[C@H]1C(=O)N1CCC[C@H]1C(=O)N[C@@H](CO)C(N)=O)C(C)C [Compound 18#] (H-Y[Aib]EGTFTSDYSIYK([AEEA-AEEA-γGlu-C20 diacid])EKIAAQEFVNWLLAGGPSSGAPPPS-NH2)
[1]; day 7
  daily food intake: 0.5 g
[1]; day 8
  daily food intake: 0.7 g
[1]; day 9
  daily food intake: 0.9 g
[1]; day 10
  daily food intake: 0.9 g
[1]; day 11
  daily food intake: 1.1 g
[1]; day 12
  daily food intake: 2 g
[1]; day 13
  daily food intake: 1.3 g
[1]; day 14
  daily food intake: 1.7 g
[1]; day 15
  daily food intake: 2 g
[1]; day 16
  daily food intake: 1 g
[1]; day 17
  daily food intake: 1.6 g
[1]; day 18
  daily food intake: 2 g
[1]; day 19
  daily food intake: 1.4 g
[1]; day 20
  daily food intake: 1.8 g
[1]; day 21
  daily food intake: 2.4 g
[1]; day 22
  daily food intake: 1.4 g
[1]; day 23
  daily food intake: 2.1 g
[1]; day 24
  daily food intake: 2.3 g
[1]; day 25
  daily food intake: 1.5 g
[1]; day 26
  daily food intake: 1.6 g
[1]; day 27
  daily food intake: 2.8 g
[1]; day 28
  daily food intake: 1.2 g
[2]; [4]
  Concentration of fasting blood glucose: 14.77 ± 1.30 mmol/L
  Concentration of random blood glucose: 20.42 ± 1.56 mmol/L
[2]; 10 nmol/kg s.c., Day 7, mean ± SD
  Concentration of fasting blood glucose: 6.05 ± 0.42 mmol/L
[2]; 10 nmol/kg s.c., Day 10, mean ± SD
  Concentration of random blood glucose: 20.66 ± 1.48 mmol/L
[2]; 10 nmol/kg s.c., Day 14, mean ± SD
  Concentration of fasting blood glucose: 6.30 ± 0.46 mmol/L
[2]; 10 nmol/kg s.c., Day 17, mean ± SD
  Concentration of random blood glucose: 18.91 ± 1.33 mmol/L
[2]; 10 nmol/kg s.c., Day 21, mean ± SD
  Concentration of fasting blood glucose: 7.89 ± 0.81 mmol/L
[2]; 10 nmol/kg s.c., Day 24, mean ± SD
  Concentration of random blood glucose: 21.17 ± 2.07 mmol/L
[2]; 10 nmol/kg s.c., Day 28, mean ± SD
  Concentration of fasting blood glucose: 9.41 ± 0.97 mmol/L
[2]; 10 nmol/kg s.c.
  Glycated hemoglobin: 4.71 ± 0.23 %
[2]; [5]
  Concentration of fasting blood glucose: 14.13 ± 1.32 mmol/L
  Concentration of random blood glucose: 16.73 ± 1.59 mmol/L
[2]; 30 nmol/kg s.c., Day 7, mean ± SD
  Concentration of fasting blood glucose: 6.21 ± 0.26 mmol/L
[2]; 30 nmol/kg s.c., Day 10, mean ± SD
  Concentration of random blood glucose: 15.88 ± 1.86 mmol/L
[2]; 30 nmol/kg s.c., Day 14, mean ± SD
  Concentration of fasting blood glucose: 6.40 ± 0.57 mmol/L
[2]; 30 nmol/kg s.c., Day 17, mean ± SD
  Concentration of random blood glucose: 17.30 ± 1.17 mmol/L
[2]; 30 nmol/kg s.c., Day 21, mean ± SD
  Concentration of fasting blood glucose: 7.03 ± 0.52 mmol/L
[2]; 30 nmol/kg s.c., Day 24, mean ± SD
  Concentration of random blood glucose: 17.43 ± 1.92 mmol/L
[2]; 30 nmol/kg s.c., Day 28, mean ± SD
  Concentration of fasting blood glucose: 9.68 ± 1.03 mmol/L
[2]; 30 nmol/kg s.c.
  Glycated hemoglobin: 4.53 ± 0.17 %
[2]; [6]
  Concentration of fasting blood glucose: 14.67 ± 1.46 mmol/L
  Concentration of random blood glucose: 9.11 ± 1.25 mmol/L
[2]; 100 nmol/kg s.c., Day 7, mean ± SD
  Concentration of fasting blood glucose: 5.85 ± 0.33 mmol/L
[2]; 100 nmol/kg s.c., Day 10, mean ± SD
  Concentration of random blood glucose: 12.34 ± 1.12 mmol/L
[2]; 100 nmol/kg s.c., Day 14, mean ± SD
  Concentration of fasting blood glucose: 6.25 ± 0.32 mmol/L
[2]; 100 nmol/kg s.c., Day 17, mean ± SD
  Concentration of random blood glucose: 11.89 ± 1.15 mmol/L
[2]; 100 nmol/kg s.c., Day 21, mean ± SD
  Concentration of fasting blood glucose: 6.13 ± 0.19 mmol/L
[2]; 100 nmol/kg s.c., Day 24, mean ± SD
  Concentration of random blood glucose: 11.51 ± 0.95 mmol/L
[2]; 100 nmol/kg s.c., Day 28, mean ± SD
  Concentration of fasting blood glucose: 7.89 ± 0.41 mmol/L
[2]; 100 nmol/kg s.c., listed as 18 #
  Glycated hemoglobin: 3.78%
[2]; 100 nmol/kg s.c., listed as #18
  Glycated hemoglobin: 3.78 ± 0.13 %
[3]; 3 nmol/kg
  viscera/brain ratio for fat mass, Epididymal fat: 254.6 ± 113.4 %
  viscera/brain ratio for fat mass, Inguinal fat: 281.5 ± 140.1 %
  viscera/brain ratio for fat mass, Mesenteric fat: 84.8 ± 41.3 %
  viscera/brain ratio for fat mass, Perirenal fat: 159.2 ± 87.6 %
  viscera/brain ratio for fat mass, Scapular fat: 48 ± 15.3%
  viscera/brain ratio for fat mass, Subcutaneous fat: 129 ± 62 %
[3]; 10 nmol/kg
  viscera/brain ratio for fat mass, Epididymal fat: 211.7 ± 80.7 %
  viscera/brain ratio for fat mass, Inguinal fat: 194.4 ± 86.2 %
  viscera/brain ratio for fat mass, Mesenteric fat: 53.3 ± 14.6 %
  viscera/brain ratio for fat mass, Perirenal fat: 109.4 ± 57.1 %
  viscera/brain ratio for fat mass, Scapular fat: 42.5 ± 17%
  viscera/brain ratio for fat mass, Subcutaneous fat: 122 ± 73.2 %
[3]; 100 nmol/kg
  viscera/brain ratio for fat mass, Epididymal fat: 102.9 ± 32.2 %
  viscera/brain ratio for fat mass, Inguinal fat: 92 ± 34.5 %
  viscera/brain ratio for fat mass, Mesenteric fat: 27.4 ± 11.1 %
  viscera/brain ratio for fat mass, Perirenal fat: 46.6 ± 18.2 %
  viscera/brain ratio for fat mass, Scapular fat: 32.3 ± 7%
  viscera/brain ratio for fat mass, Subcutaneous fat: 57.1 ± 21.2 %
[3]; all dose test groups
  content of fat of each part (except scapular fat) relative to placebo: significantly reduced
